Results as given in article PMC11915509, “Small molecule inhibitors of hnRNPA2B1–RNA interactions reveal a predictable sorting of RNA subsets into extracellular vesicles” (Nucleic Acids Research, 2025).
“And” between values parts separate entries of the source, which are not always exact repeats. Equal entries are not always repeated.

Columns and labels:
NF-kB = NF-kB luciferase reporter in EV-recipient HEK293T cells; assay type: cell-based, human; conditions: EVs from hnRNPA2B1 OE HEK293T donor cells treated 5 μM 6 h; recipient cells 8 h
Source text: To obtain some preliminary information on the bioactivity of identified compounds in relation to EV function, we explored the potential activation NF-kB in EV-recipient cells as a readout. […] We, therefore, used HEK293T cells as EV-recipient cells upon transfecting them with an NF-kB-responsive promoter activating the luciferase reporter. To work with an experimental set up considering the post-transcriptional effects on the readout, we evaluated if the expression of the recombinant hnRNPA2B1 could induce secretion of EVs capable of activating NF-kB if further exposed to autologous cells. […] We, therefore, exploited this system to test compounds including some indication on the relevance of the EV-RNA cargo in mediating the luciferase activation in recipient cells. […] Next, we washed with PBS and incubated cells with serum-free media for additional 24 h to recover EVs. We exposed these EVs for 8 h to HEK293T cells previously seeded in 96-well plate and transfected with the luciferase reporter plasmid for 24 h. […]
Paracrine effect on NF-kB activation of EVs deriving from RBP-conditioned and treated cells. […] Firefly luminescence was normalized on cellular protein content at the end point on the corresponding sample. […]

[1] = tested on: hnRNPA2B1 protein association with purine-rich RNA probe; assay: RNA pull-down with biotinylated EXOmotif probe after cell treatment, immunoblotting; assay type: cell-based, mouse; conditions: NSC34 cells, 6 h, 5 μM compound
Method: To prepare native protein lysates, 1–3 × 10^6 NSC34 cells were lysed in buffer R-Lysis [25 mM HEPES, pH 7.5, 100 mM NaCl, 1× protease inhibitor (Thermo Fisher, 78429)] and subjected to a water-bath sonication (35–40 amplitude, 6–7 cycles of 7 s on and 45 s off). After a centrifugation at 14 000 rpm for 20 min at 4°C, the supernatant was collected and 200 μg were incubated with 5 μl of buffer equilibrated Dynabeads^TM M-280 Streptavidin (Invitrogen, 11205D) for 15 min at 4°C in rotation to perform a pre-clearing step. After the magnetic separation, the pre-cleared lysate was incubated with 10 μl of 100 μM RNA biotinylated probes (or 400 ng of biotinylated EV-RNA) and incubated for 1 h at 4°C in rotation. Then, 5 μl/sample of beads were added and the sample were put again in rotation for 20 min at 4°C. […]
Cells were lysed in lysis buffer [50 mM Tris–HCl, pH 7.4, 150 mM NaCl, 1 mM EDTA, 0.25% NP-40, 0.1% Triton X-100, 0.1% sodium dodecyl sulphate, 1× protease inhibitor (Thermo Fisher, 78429)]. […] The signal was measured with Amersham ECL HRP-Conjugated Antibodies (Cytiva) using BioRad Chemidoc XRS+.

[2] = target: T1, hnRNPA2B1-EXOmotif interaction (Homo sapiens, UniProt P22626); assay: AlphaScreen dose-response, inhibition of hnRNPA2B1-EXOmotif RNA interaction; assay type: binding; conditions: AlphaScreen dose-response with RNA EXOmotif, one site fitting
T1 construct: purified a human full-length, GST-tagged protein expressed in Escherichia coli cells; made in house; host or cells: E. coli BL21 (DE3)
Method: The assays were performed in OptiPlate-384-well plates (PerkinElmer, 6007299) in 20 μl final volume. The ligands were diluted in AlphaBuffer [25 mM HEPES, pH 7.4, 100 mM NaCl, 0.01% bovine serum albumin (BSA)] and tested using AlphaScreen GST Detection Kit (PerkinElmer, 6760603C). […] For the reactions, 4 μl of the RNA probes were first added to the plate, then 16 μl of a mix containing all the other components was added, and the plate was incubated at room temperature for 1 h in the dark.
The high-throughput drug screening was performed in a total volume of 20 μl using 17 nM of RNA EXO motif (chosen below the hooking point), 30 nM GST-hnRNPA2B1, and 250 nM of compounds belonging to mass spectrometry (MS) Spectrum Collection library (MicroSource, 2000 compounds). Compounds were dispensed into white 384-well Optiplates (PerkinElmer) using Echo 650 acoustic dispenser (Beckman Coulter) followed by the addition of protein in Alpha Buffer using the EL460 dispenser (BioTek). After 15 min of incubation, RNA probes were added by Echo 650 acoustic dispenser, while Donor and Acceptor beads from the GST detection kit (Perkin Elmer) were dispensed by EL460 instrument. Following 60 min of incubation, Alpha signal was detected using Enspire plate reader instrument (PerkinElmer). The raw Alpha counts were normalized to Dimethyl sulfoxide (DMSO)-treated controls within every plate.

NSC34 cells = assay: Nanodrop quantification of total intracellular RNA after treatment; assay type: cell-based, mouse; conditions: 6 h treatment
Method: RNA from cells was extracted using TRI Reagent® ([…], Sigma) following the manufacturer's instructions. Thermo Fisher Nanodrop 2000 Spectrophotometer was used to assess the purity and quantity of extracted RNA. RNA from EVs was extracted using Single Cell RNA Isolation Kit (51800, Norgen) following the manufacturer's protocol. The elution was in 10-20 μl of RNase-free water and the RNA profiling and quantification was assessed by Agilent 2100 Bioanalyzer and RNA 6000 Pico Kit (5067-1513). Cell- and EV-RNAs were also analysed with DNF-472 HS RNA (15 nt) Kit (Agilent Technologies, Santa Clara, CA), according to the manufacturer. Briefly, 2 μl of RNA samples concentrated within a range of 50-5000 pg/μl and RNA Ladder were added to Diluent Marker, denatured at 70°C for 2 min and loaded. Results were analysed with Agilent ProSize data analysis software, that allows the analysis of RNA size, concentration and quality. Through a Peak Analysis it was possible to access the concentration of each peak recognized by the software. Half a nanogram of extracted RNA from cells and EVs was used as input for complementary DNA (cDNA) synthesis. cDNA was produced using TaqManTM Advanced miRNA cDNA Synthesis Kit (Applied BiosystemsTM, A28007) following manufacturers' instructions and used for droplet digital polymerase chain reaction (PCR) experiments.

EXO-motif RNA = assay: Fluorescence indicator displacement (FID) melting curve, EXO-motif RNA; assay type: binding; conditions: 5 μM RNA, 25 μM compound, Midori green
Method: Five μM RNA EXO motif were mixed with 25 μM compounds in AlphaBuffer (25 mM HEPES, pH 7.4, 100 mM NaCl, 0.01% BSA) to a final volume of 20 μl. Absorbance spectrum (200–530 nm) was measured using Tecan Spark® microplate reader with a NanoQuant plate at room temperature. In fluorescence indicator displacement (FID), a 2× final concentration of Midori green advanced (Resnova) was added to the samples and the melting curve measured using Bio-Rad CFX96™ System from 30°C to 90°C.

T1 sequence (P22626 whole entry): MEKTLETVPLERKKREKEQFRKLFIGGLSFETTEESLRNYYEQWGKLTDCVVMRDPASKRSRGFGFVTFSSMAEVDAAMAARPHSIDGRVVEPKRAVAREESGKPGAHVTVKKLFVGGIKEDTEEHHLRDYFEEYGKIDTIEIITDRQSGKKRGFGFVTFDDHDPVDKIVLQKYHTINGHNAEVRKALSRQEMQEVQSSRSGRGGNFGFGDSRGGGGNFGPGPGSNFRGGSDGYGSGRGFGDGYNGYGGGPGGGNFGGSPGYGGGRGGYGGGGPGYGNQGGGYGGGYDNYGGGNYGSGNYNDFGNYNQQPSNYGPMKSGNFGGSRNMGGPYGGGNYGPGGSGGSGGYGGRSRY

With O=C1C=C2CC3(O)COc4c(ccc(O)c4O)C3=C2C=C1O (centres unmarked) [H, hematein] the “EV-mediated, hnRNPA2B1-induced NF-kB activation” value (NF-kB) was “significantly counteracted”, the “association of hnRNPA2B1 protein with exogenous purine-rich RNA probe” value [1] was “most effective” and the IC50 [2] was ~100 nM and 99.9 nM. For the same compound, the “accumulation of intracellular RNAs” value (NSC34 cells) was “significantly higher” and the “thermal shift of the EXO-motif RNA” value (EXO-motif RNA) was 9.5 °C.
